Results taken from patent publication US10463661B2, “Anthelmintic compounds” (MERIAL INC., priority 2014, dated 2019).

What was measured:
[1] = tested on: ivermectin-resistant strains of Trichostrongylus columbriformis; test: Efficacy against ivermectin-resistant endoparasites in sheep (FIG. 2); format: in vivo; conditions: 0.2 mg/kg orally
[2] = tested on: ivermectin-resistant strains of Ostertagia circumcincta; test: as above; format: in vivo; conditions: 0.2 mg/kg orally
[3] = tested on: ivermectin-resistant strains of Haemonchus contortus; test: as above; format: in vivo; conditions: 0.2 mg/kg orally
[4] = Permeability in the CACO-2/TC7 in vitro model (Method C); format: in vitro ADME; conditions: human, apical to basolateral, pH gradient 6.5/7.4 and BSA gradient 0.5%/5%, 20 μM compound
From the text: Permeability of Compounds.
Permeability of a compound across the epithelium cells along the gastrointestinal tract is an important limiting factor for the oral absorption and systemic availability of the compound. An in vitro model utilizing Caco-2/TC7 cells is employed to assess the permeability characteristics of new chemical entities (NCEs). For orally administered compounds, absorption depends on the intrinsic permeability across the intestinal epithelium and whether the active agent is a substrate or inhibitor of uptake or efflux transporters.
The permeability studies were performed under standard conditions in the apical to basolateral (A→B) direction with a pH gradient and a BSA gradient (standard apical medium (0.5% BSA at pH 6.5)/standard basal medium (5% BSA at pH 7.4)); conditions that most closely reflect the conditions in the in vivo situation. Samples were deproteinized by the addition of 400 μl acetonitrile to 200 μl sample, followed by a 20-minute centrifugation at 1730 g. […] Analytical conditions: Supernatants recovered following centrifugation were analysed by LC/MS/MS using a reverse phase column and the mobile phases delivered at 0.3 ml/minute in a gradient: water (A) and acetonitrile (B) (each with 0.1% formic acid). […]

Haemonchus contortus = test: Screening method to test activity against Haemonchus contortus L1 larvae (Method A); format: cell-based; conditions: 96 h, read-out: motility inhibition
Protocol: Screening method to test activity of compounds against Haemonchus contortus.
Twenty L1 Haemonchus contortus larvae were added to wells of a microtitre plate containing a nutrient medium and the test compound in DMSO. An analysis was conducted at 4 days to determine the extent of development of the larvae. Larvae exposed to DMSO alone served as controls. Compounds 3, 6, 12, 15, 43, 44, 45, 46, 47, 48, 49, & 50 gave at least 90% motility inhibition at a test concentration of less than or equal to <1 μM when assessed at the 4 day time point.

Compound	efficacy [1]	efficacy [2]	efficacy [3]	Papp A→B at 20 μM [4]	inhibition at 1 µM (Haemonchus contortus)
ivermectin	less than 60%	less than 30%	almost completely inactive	–	–
N#Cc1ccc(N2CCC(OCC(=O)N3CCN(c4nc5cc(C(F)(F)F)ccc5s4)CC3)CC2)cc1C(F)(F)F [Compound 3, 4-[4-[2-oxo-2-[4-[5-(trifluoromethyl)-1,3-benzothiazol-2-yl]piperazin-1-yl]ethoxy]-1-piperidyl]-2-(trifluoromethyl)benzonitrile]	–	–	–	2.8 ×10⁻⁶ cm/s	≥ 90%
N#Cc1ccc(N2CC(OCC(=O)N3CCN(c4nc5cc(C(F)(F)F)ccc5s4)CC3)C2)cc1C(F)(F)F [Compound 6, 4-[3-[2-oxo-2-[4-[5-(trifluoromethyl)-1,3-benzothiazol-2-yl]piperazin-1-yl]ethoxy]azetidin-1-yl]-2-(trifluoromethyl)benzonitrile]	–	–	–	–	≥ 90%
